Source: patent US6831086B1, “Process for the inactivation of viruses with the aid of acridine derivatives” (ZLB Behring GmbH, priority 1994, dated 2004)

Experiments:
Haemate ® Factor VIII = test: Clotting activity of Haemate after virus inactivation; assay type: biochemical; conditions: for Activity (clotting activity): Haemate ® Factor VIII, 3 hours 37° C.
IBRV = test: Inactivation of IBRV, infectiousness titration; assay type: cell-based, Infectious bovine rhinotracheitis virus; conditions: for Titer reduction / Treatment titer: 45° C.
Beriplex ® Factor II = Beriplex ® Factor II (Homo sapiens, UniProt P00734); test: Clotting activity of Beriplex after virus inactivation; assay type: biochemical; conditions: 3 hours 37° C.
[1] = tested on: envelope-containing and nonenveloped virus species; assay type: cell-based
PPV = test: Inactivation of PPV, infectiousness titration; assay type: cell-based, Porcine parvovirus
BPV = test: Inactivation of BPV, infectiousness titration; assay type: cell-based, Bovine parvovirus; conditions: for Virus inactivation: BPV, 45° C.
PI3 virus = test: Inactivation of PI3 virus, infectiousness titration; assay type: cell-based, Bovine parainfluenza 3 virus; conditions: 37° C.; for Virus inactivation: EME medium
CPV = test: Inactivation of CPV in protein solutions, infectiousness titration; assay type: cell-based, Canine parvovirus; conditions: Acriflavine 0.001 mg/ml
BVDV = test: Inactivation of BVDV, infectiousness titration; assay type: cell-based, Bovine viral diarrhoea virus; conditions: Venimmun + BVDV; Acriflavine 0.001 mg/ml; 37° C.; 3 h
[2] = Beriplex + PPV, BACI 0.001 mg/ml, 30° C., 0 h
[3] = Beriplex + PPV, BACI 0.001 mg/ml, 30° C., 1 h
[4] = Beriplex + PPV, BACI 0.001 mg/ml, 30° C., 2 h
[5] = Beriplex + PPV, BACI 0.001 mg/ml, 30° C., 3 h
[6] = Beriplex + PPV, BACI 0.01 mg/ml, 37° C., 0 h
[7] = Beriplex + PPV, BACI 0.01 mg/ml, 37° C., 1 h
[8] = Beriplex + PPV, BACI 0.01 mg/ml, 37° C., 2 h
[9] = Beriplex + PPV, BACI 0.01 mg/ml, 37° C., 3 h
[10] = Beriplex + PPV, Acriflavine 0.001 mg/ml, 30° C., 0 h
[11] = Beriplex + PPV, Acriflavine 0.001 mg/ml, 30° C., 1 h
[12] = Beriplex + PPV, Acriflavine 0.001 mg/ml, 30° C., 2 h
[13] = Beriplex + PPV, Acriflavine 0.001 mg/ml, 30° C., 3 h
[14] = Beriplex + PPV, Acriflavine 0.001 mg/ml, 37° C., 3 h
[15] = Haemate + PPV, Acriflavine 0.001 mg/ml, 37° C., 3 h

Haemate®: Concentrate from clotting factor VIII and Von-Willebrand factor, pasteurized (Behringwerke AG)
Activity decrease of clotting preparation after acridines/benzalkonium chloride inactivation, in words (Haemate ® Factor VIII; Table 7): tolerable

CCOc1ccc2nc3cc(N)ccc3c(N)c2c1 [Ethacridine lactate]
Titer reduction (IBRV; 0 h): 0 log10/ml | Treatment titer (IBRV; 0 h): 6.5 log10/ml | Titer reduction (IBRV; 1 h): 3.7 log10/ml | Treatment titer (IBRV; 1 h): 2.0 log10/ml | Titer reduction (IBRV; 2 h): ≧2.8 log10/ml | Treatment titer (IBRV; 2 h): ≦1.5 log10/ml

Benzalkonium chloride [BACI]
Activity (clotting activity) (Beriplex ® Factor II; BACI 0.02 mg/ml): 61.3 IU/ml | Virus species inactivated, in words [1]: only envelope-containing viruses can be, inactivated | Titer reduction (PPV; [2]): 0 log10/ml | Treatment titer (PPV; [2]): 4.8 log10/ml | Titer reduction (PPV; [3]): 0 log10/ml | Treatment titer (PPV; [3]): 4.8 log10/ml | Titer reduction (PPV; [4]): 0 log10/ml | Treatment titer (PPV; [4]): 4.8 log10/ml | Titer reduction (PPV; [5]): 0 log10/ml | Treatment titer (PPV; [5]): 4.6 log10/ml | Titer reduction (PPV; [6]): 0 log10/ml | Treatment titer (PPV; [6]): 4.8 log10/ml | Titer reduction (PPV; [7]): 0 log10/ml | Treatment titer (PPV; [7]): 4.6 log10/ml | Titer reduction (PPV; [8]): 0 log10/ml | Treatment titer (PPV; [8]): 4.6 log10/ml | Titer reduction (PPV; [9]): 0.2 log10/ml | Treatment titer (PPV; [9]): 4.6 log10/ml | Virus inactivation (BPV; BACI 0.01 mg/ml, 1 hour): 0 log10/ml | Virus inactivation (BPV; BACI 0.01 mg/ml, 2 hours): 0 log10/ml | Virus inactivation (BPV; BACI 0.05 mg/ml, 1 hour): 0 log10/ml | Virus inactivation (BPV; BACI 0.05 mg/ml, 2 hours): 0 log10/ml | Inactivation of BPV, in words (BPV; test conditions of Table 2, 45° C., 1 or 2 hours): not inactivated | Virus inactivation (PI3 virus; BACI 0.005 mg/ml, 0-0.03 h): ≧5.9 log10/ml | Virus inactivation (PI3 virus; BACI 0.0125 mg/ml, 0-0.03 h): 0.5 log10/ml | Virus inactivation (PI3 virus; BACI 0.0125 mg/ml, 1 h): 1.3 log10/ml | Virus inactivation (PI3 virus; BACI 0.025 mg/ml, 0-0.03 h): 1.4 log10/ml | Virus inactivation (PI3 virus; BACI 0.025 mg/ml, 1 h): ≧5.3 log10/ml | Virus inactivation (PI3 virus; BACI 0.05 mg/ml, 1 h): ≧5.3 log10/ml | Virus inactivation (PI3 virus; BACI 0.1 mg/ml, 0-0.03 h): ≧5.9 log10/ml | Virus inactivation (PI3 virus; BACI 0.1 mg/ml, 1 h): ≧5.3 log10/ml | Inactivation of PI3 virus, in words (PI3 virus; high doses of BACI (0.1 mg/ml, 0.05 mg/ml), time needed to mix, sample and titrate): infectious virus was no longer detectable | Activity (clotting activity) (Haemate ® Factor VIII; BACI 0.02 mg/ml): 20.7 IU/ml

3,6-diamino-10-methylacridinium, chloride and 3,6-acridineidiamine [Acriflavine]
Activity (clotting activity) (Beriplex ® Factor II; A 0.001 mg/ml): 50.0 IU/ml | Activity (clotting activity) (Beriplex ® Factor II; A 0.002 mg/ml): 48.8 IU/ml | Titer reduction (PPV; [10]): 0 log10/ml | Treatment titer (PPV; [10]): 4.8 log10/ml | Titer reduction (PPV; [11]): 1.0 log10/ml | Treatment titer (PPV; [11]): 3.6 log10/ml | Titer reduction (PPV; [12]): 1.7 log10/ml | Treatment titer (PPV; [12]): 2.9 log10/ml | Titer reduction (PPV; [13]): ≧3.3 log10/ml | Treatment titer (PPV; [13]): ≦1.5 log10/ml | Titer reduction (PPV; [14]): ≧3.3 log10/ml | Treatment titer (PPV; [14]): ≦1.5 log10/ml | Titer reduction (PPV; [15]): ≧3.8 log10/ml | Treatment titer (PPV; [15]): ≦1.5 log10/ml | Titer reduction (CPV; FCS + CPV, 37° C., 3 h): 3.5 log10/ml | Treatment titer (CPV; FCS + CPV, 37° C., 3 h): 3.4 log10/ml | Titer reduction (CPV; FCS + CPV, 45° C., 0 h): 0 log10/ml | Treatment titer (CPV; FCS + CPV, 45° C., 0 h): 6.8 log10/ml | Titer reduction (CPV; FCS + CPV, 45° C., 1 h): 2.0 log10/ml | Treatment titer (CPV; FCS + CPV, 45° C., 1 h): 4.8 log10/ml | Titer reduction (CPV; FCS + CPV, 45° C., 2 h): 3.3 log10/ml | Treatment titer (CPV; FCS + CPV, 45° C., 2 h): 3.5 log10/ml | Titer reduction (CPV; FCS + CPV, 45° C., 3 h): 4.2 log10/ml | Treatment titer (CPV; FCS + CPV, 45° C., 3 h): 2.8 log10/ml | Titer reduction (CPV; Venimmun + CPV, 37° C., 3 h): 3.0 log10/ml | Treatment titer (CPV; Venimmun + CPV, 37° C., 3 h): 3.9 log10/ml | Activity (clotting activity) (Haemate ® Factor VIII; A 0.001 mg/ml): 16.8 IU/ml | Activity (clotting activity) (Haemate ® Factor VIII; A 0.002 mg/ml): 18.9 IU/ml | Titer reduction (BVDV): ≧6.0 log10/ml | Treatment titer (BVDV): 0 log10/ml | Virus inactivation (IBRV; 37° C., 2 hours): 3.3 log10/ml
